Read-outs that look alike come from different tables or passages of the source.
Columns and labels:
[1] = system: Onchocerca ochengi microfilariae; assay: O. ochengi microfilariae (Mf) motility assay, primary and secondary screens; type: cell-based; conditions: for inhibition at 30 µM / IC50: Onchocerca ochengi; for inhibition at 30 µM: 24 h, read-out: % Mf Motility Reduction after 24 h; for IC50: read-out: IC50 Mf; for effect on motility of microfilariae (in words): dose-dependent manner; for SI Mf: selectivity index = IC50 on LLC-MK2 cells (CC50) / IC50 on parasites; for % Mf Motility Reduction after 24 h: positive control
Protocol: Briefly, Mf were prepared using the method described by Cho-Ngwa et al., with slight modifications. A few skin snips were obtained from different locations and incubated in aliquots of culture medium for 15 min, after which the emergent Mf were qualified and quantified using an inverted microscope and standard atlases. The leftover pieces of skin were shaved, rinsed, sterilized with 70% ethanol and sliced into thin slivers. The slivers were incubated in CCM for 2 h, and the emergent highly motile O. ochengi Mf were concentrated by centrifugation. The Mf were transferred to 96-well micro titer plates (15 Mf/100 μL/well) containing a fully confluent LLC-MK2 cell layer in 100 μL of CCM. This was monitored for viability and sterility for 24 h before addition of test and control compounds.
The biological assays were conducted in duplicate in the 96-well microtiter plates. The Mf were incubated with the drug for 120 h in a total of 200 μL of medium. Mf viability was assessed by microscopy once every day and motility inhibition scores were recorded. […] Motility inhibition correlates to drug activity. The positive control drug was amorcazine at 30 μM, and negative control was the diluent (DMSO).
Compounds showing 100% activity in the primary screens were re-tested as described under primary screens to determine the IC50 values. All assays were repeated at least once. The selectivity index (SI) of each extract was calculated as the ratio of the IC50 of the extract on the mammalian cell (termed CC50) to the IC50 on parasites.

[2] = system: Onchocerca ochengi adult male worms; assay: O. ochengi adult male worm motility assay, primary and secondary screens; type: cell-based; conditions: for IC50: Onchocerca ochengi, read-out: IC50 Adult Male Worm; for effect on motility of adult male worms (in words): dose-dependent manner; for IC100 Adult Male Worm: secondary screen; for SI Adult Male Worm: selectivity index = IC50 on LLC-MK2 cells (CC50) / IC50 on parasites
Protocol: (§1) The isolation of O. ochengi adult worms was performed as described previously by Cho-Ngwa et al.. Briefly, fresh pieces of umbilical cattle skin with palpable nodules bought from butchery in Douala, Cameroon were washed, drained and sterilized with 70% ethanol. The worms were carefully scraped out of the nodules as single masses and temporarily submerged in 1 mL complete culture medium, CCM [RPMI-1640 (Sigma-Aldrich, St. Louis, MO, USA) supplemented with 25 mM HEPES, 2 g/L sodium bicarbonate, 2 mM L-glutamine, 5% newborn calf serum (SIGMA, St. Louis, MO, USA), 150 units/mL penicillin, 150 µg/mL streptomycin and 0.5 µg/mL amphotericin B (SIGMA, St. Louis, MO, USA), pH 7.4)] using 24-well plates. The adult worms were incubated in the culture medium overnight in a CO2 incubator, during which period the male worms migrated out of the nodular masses. Only wells containing viable worms received treatment with test compounds. Damaged worms and worms from putrefied nodules were discarded. The viability of worms retained for the assay was ascertained by visual and microscopic examination of adult male worm motility using an inverted microscope.
(§2) The compounds were tested on […] at a single concentration of 30 μM, in duplicate wells. […] The female worms were removed and incubated in 500 μL of 0.5 μg/mL MTT for the last 30 min of incubation. Inhibition of formazan formation from MTT directly correlates with worm death. The worms were blotted on absorbent paper and observed visually for blue coloration against a white background. […] Auranofin at 10 μM, which had previously shown activity against O. ochengi adult worms and Mf, was used as a positive control, while negative control wells received the diluent, 2% DMSO only, previously shown to have no effect on parasite viability. The solvent DMSO (2%) was used as a negative control. […] Furthermore, the toxicity of DMSO decreases with dilution.
Adult male worm motility was evaluated with the aid of an inverted microscope.
(§3) The pure compounds with 100% activity at primary screens were re-tested as described under primary screens, in order to determine the IC50 values. The IC50 assays were performed in triplicate and each experiment repeated for confirmation. The means of all activities at a concentration were calculated and used in the statistical analyses. GraphPadPrism version 6.0 (GraphPad Software, San Diego, CA, USA) was used to generate dose response curves from which the IC50 values were obtained.

[3] = system: Onchocerca ochengi adult female worms; assay: O. ochengi adult female worm viability, MTT/formazan assay; type: cell-based; conditions: for killing at 30 µM: read-out: % Adult Female Worm Death after 120 h; for activity on adult female worms (in words): biochemical assessment at 30 μM; for IC100 Adult Female Worm: secondary screen
Protocol: as §1, §2, §3

[4] = system: Monkey kidney epithelial cells (LLC-MK2); assay: Cytotoxicity on monkey kidney epithelial cells, microscopic; type: cell-based; conditions: Primates, LLC-MK2, 120 h, read-out: IC50 Monkey Kidney Cells (LLC-MK2)
Protocol: Monkey kidney epithelial cells (LLC-MK2) (ATCC, Manassas, VA, USA) were cultured at 37 °C in humidified air with 5% CO2 in a Hera Cell-150 incubator (Thermo Electron, Karlsruhe, Germany) until the cell layer was almost confluent. The cell suspension was dispensed into 96-well micro titer plates (200 µL/well) and kept in the incubator for 3–5 days for cells to grow and become fully confluent. These cells served as feeder layers for the Mf assays and were also used for cytotoxicity studies.
Cytotoxicity of the pure compounds with anti-onchocercal activities was assessed on LLC-MK2 cells, microscopically, on day 5 of the Mf assay. Living cells were flattened out and attached to the culture plate, while dead cells were rounded up and detached from the plate. The IC50 values for these cells were estimated from the morphological deformation data.

[5] = system: Onchocerca ochengi adult male worms; assay: O. ochengi adult male worm motility assay, primary and secondary screens; type: cell-based; conditions: for inhibition at 30 µM: Onchocerca ochengi, 24 h, read-out: % Adult Male Worm Motility Reduction after 24 h
[6] = system: Onchocerca ochengi; set-up: method as in earlier work; conditions: from stem bark of V. africana; cited from earlier work

## CC[C@H]1CC2CN3CCc4c([nH]c5ccc(OC)cc45)[C@](C(=O)OC)(C2)[C@H]13 (stereo in doubt) [Compound 2, voacangine]
[1]; primary screen, 30 μM
  inhibition at 30 µM: 100%
[1]; secondary screen, motility
  IC50: 5.49 µM
[1]
  effect on motility of microfilariae (in words): inhibit the motility
  SI Mf: 5.46
[1]; secondary screen
  IC100 Mf: 10 µM
[2]
  IC50: 9.07 µM
  effect on motility of adult male worms (in words): inhibit the motility
  IC100 Adult Male Worm: 20 µM
  SI Adult Male Worm: 3.30
[3]; Onchocerca ochengi, 120 h
  killing at 30 µM: 100%
[3]
  activity on adult female worms (in words): moderately active
  IC100 Adult Female Worm: >30 µM
[4]; cytotoxicity, day 5, estimated from morphological deformation
  IC50: ≥ 30 µM
[5]
  inhibition at 30 µM: 100%
[6]
  activity against Onchocerca ochengi (in words): showing activity

## COc1ccc2[nH]c3c(c2c1)CCN1CC2CC3C1C([C@H](C)O)C2 (stereo partly shown) [Compound 6, iboxygaine]
[1]
  inhibition at 30 µM: 100%
  IC50: 4.72 µM
  effect on motility of microfilariae (in words): inhibit the motility
  SI Mf: 6.35
[1]; secondary screen
  IC100 Mf: 9.44 µM
[2]
  IC50: 9.07 µM
  effect on motility of adult male worms (in words): inhibit the motility
  IC100 Adult Male Worm: 18.14 µM
  SI Adult Male Worm: 3.30
[3]; Onchocerca ochengi, 120 h
  killing at 30 µM: 50%
[3]
  activity on adult female worms (in words): moderately active
  IC100 Adult Female Worm: >30 µM
[4]
  IC50: ≥ 30 µM
[5]
  inhibition at 30 µM: 100%

## Ivermectin [reference compound]
[1]; 10 μg/mL
  % Mf Motility Reduction after 24 h: 100%

## CC(=O)OC[C@H]1O[C@@H]([S-])[C@H](OC(C)=O)[C@@H](OC(C)=O)[C@@H]1OC(C)=O.CCP(CC)CC.[Au+] [Auranofin, reference compound]
[1]; 10 μM
  % Mf Motility Reduction after 24 h: 100%
[3]; positive control, 10 μM, % inhibition of formazan formation
  % Adult Female Worm Death after 120 h: 100%
[5]; positive control, 10 μM
  % Adult Male Worm Motility Reduction after 24 h: 100%

## CN1CCN(C(=S)Nc2ccc(Nc3ccc([N+](=O)[O-])cc3)cc2)CC1 [amocarzine, reference compound]
[3]; Onchocerca ochengi, 120 h, read-out: inhibition of formazan formation in adult female worms
  inhibition at 10 µM: 100%

— article PMC7795662, “Alkaloids with Anti-Onchocercal Activity from Voacanga africana Stapf (Apocynaceae): Identification and Molecular Modeling” (Molecules, 2020)
